Target: T1, EcRB2/USP (Drosophila melanogaster, UniProt P34021)
T1 construct: The plasmid encodes a version of EcRB2 that includes 669 amino acids, and deletes the F domain; expressed in transfected cells; host or cells: CHO
T1 sequence (P34021 1-669 isoform P34021-3): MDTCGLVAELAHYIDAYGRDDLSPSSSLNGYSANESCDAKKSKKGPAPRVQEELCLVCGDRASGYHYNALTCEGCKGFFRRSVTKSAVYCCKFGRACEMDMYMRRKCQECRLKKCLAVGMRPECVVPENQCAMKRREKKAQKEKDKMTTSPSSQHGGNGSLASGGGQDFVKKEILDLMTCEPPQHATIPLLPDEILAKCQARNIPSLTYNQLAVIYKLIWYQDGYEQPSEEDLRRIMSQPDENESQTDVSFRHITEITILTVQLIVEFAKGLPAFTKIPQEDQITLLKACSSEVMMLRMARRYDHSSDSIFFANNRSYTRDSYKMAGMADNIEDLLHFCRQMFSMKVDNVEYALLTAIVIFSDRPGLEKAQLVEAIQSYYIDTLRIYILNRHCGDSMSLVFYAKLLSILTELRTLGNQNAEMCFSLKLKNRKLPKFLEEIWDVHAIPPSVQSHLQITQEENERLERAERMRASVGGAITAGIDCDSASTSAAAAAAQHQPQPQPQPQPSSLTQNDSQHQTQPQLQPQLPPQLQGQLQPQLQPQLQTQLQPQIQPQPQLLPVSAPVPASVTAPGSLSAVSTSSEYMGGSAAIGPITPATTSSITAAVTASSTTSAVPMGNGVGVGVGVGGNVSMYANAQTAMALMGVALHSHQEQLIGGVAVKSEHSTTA
T1 sequence (O76202 192-472 partner): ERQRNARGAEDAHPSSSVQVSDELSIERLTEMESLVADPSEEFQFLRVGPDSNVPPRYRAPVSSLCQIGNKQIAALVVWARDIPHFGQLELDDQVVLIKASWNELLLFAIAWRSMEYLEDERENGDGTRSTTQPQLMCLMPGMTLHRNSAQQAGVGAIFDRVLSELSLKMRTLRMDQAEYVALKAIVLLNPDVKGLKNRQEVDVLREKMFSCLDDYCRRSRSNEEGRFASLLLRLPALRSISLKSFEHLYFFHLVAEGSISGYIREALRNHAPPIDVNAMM
Assay: EcRB2 isoform with USP (VP16CfUSP), (EcRE)5-ΔMTV-LUC in CHO cells
Assay type: cell-based
Description: These experiments employed a mammalian cell culture system using Chinese hamster ovary cells (CHO) to evaluate the transcriptional function of Drosophila melanogaster EcR and USP using methods described previously (U.S. Patent Application Publication No: 2005/0049230; Henrich et al, 2003). Cells were seeded in 6-well polypropylene culture plates (Falcon) with 10^5 cells per well on the day prior to transfection. Transfection was subsequently performed using either calcium phosphate (Kitareewan et al., 1996, Mol. Biol. Cell, 7:1153-1196) or a GenePorter reagent (Gene Therapy Systems, Inc; San Diego, Calif.) following manufacturer's protocols. Each well received 1.25 μg of (EcRE)5-ΔMTV-CAT (five copies of the hsp27 EcRE inserted into an mouse mammary tumor virus (MTV) promoter upstream of the chloramphenicol acetyltransferase (CAT) gene) or (EcRE)5-ΔMTV-LUC (the same promoter attached to firefly luciferase), 1.25 μg of pCH111 (SV40 early promoter linked to the β-galactosidase gene) to normalize CAT activity, and 0.25 μg of each expression plasmid (EcR, FXR, RXR, USP) that was tested. The cells were incubated with plasmid DNA for seven hours and then washed with 1×PBS. Muristerone A (murA; Alexis Biochemicals) or 20-hydroxyecdysone (20E; Sigma) dissolved in ethanol to a concentration of 10 mM was diluted as necessary to the final assay concentration (FAC) in 2 ml of fresh incubation medium that was then applied to the cells. Similarly, JHIII (Sigma) was dissolved in dimethyl sulfoxide (DMSO) to a concentration of […] and diluted into the incubation medium to its final assay concentration (20, 40, 80, 160 μM). […] A corresponding volume of ethanol and DMSO were added to control cells for all experiments. For all experiments, the cells were allowed to incubate with the medium for 24 hours before collection and cell lysates were prepared by described methods (Kitareewan et al., 1996). Both β-galactosidase and CAT reporter activity were measured based on previously used methods (Kitareewan et al, 1996). Luciferase assays using luciferrin followed the specifications of the manufacturer.
Transcriptional activity, measured as ^14C-chloramphenicol counts (for measuring CAT activity) or relative luciferase activity (RLU) was quantified for each cell lysate. The counts were then normalized by adjusting for differences in β-galactosidase activity, since β-galactosidase expression is controlled by a constitutive promoter and provides an estimate of cell mass. Data were normalized as fold-induction based on differences in reporter gene activity between hormonally treated and control cells.

SMILES: CC(C)(O)CC[C@@H](O)[C@](C)(O)[C@H]1CC[C@@]2(O)C3=CC(=O)[C@@H]4C[C@@H](O)[C@@H](O)C[C@]4(C)[C@H]3CC[C@]12C [20E, 20-hydroxyecdysone]
- transcriptional response to 20E (EcRB2 + VP16CfUSP, 10 μM 20E): consistent and discernible transcriptional response
- 20E (inducibility) (EcRB2/USP, 10 μM 20E): + ((+) designates a change in transcriptional level that exceeds 2.5-fold)

SMILES: COC(=O)/C=C(\C)CC/C=C(\C)CC[C@H]1OC1(C)C [JHIII, juvenile hormone III]
- potentiation of 20E response by JHIII (EcRB2 + VP16CfUSP, 10 μM 20E plus JHIII): potentiated significantly
- potentiation of murA response by JHIII (EcRB2 + VP16CfUSP, 80 μM JHIII with 0.1 μM murA): potentiated
- MurA + JHIII (JHIII potentiation) (EcRB2/USP, 0.1 μM murA + 80 μM JHIII): + ((+) indicates observed potentiation that exceeds 2-fold above the levels observed with ecdysteroid alone)
- 20E + JHIII (JHIII potentiation) (EcRB2/USP, 10 μM 20E + 80 μM JHIII): + ((+) indicates observed potentiation that exceeds 2-fold above the levels observed with ecdysteroid alone)

SMILES: CC(C)CC[C@@H](O)[C@](C)(O)[C@H]1CC[C@@]2(O)C3=CC(=O)[C@]4(O)C[C@@H](O)[C@@H](O)C[C@]4(C)[C@H]3[C@H](O)C[C@]12C [murA, muristerone A]
- induction by murA (EcRB2 + VP16CfUSP, 1 μM murA): 30-40 fold
- MurA (inducibility) (EcRB2/USP, 0.1 μM murA): + ((+) designates a change in transcriptional level that exceeds 2.5-fold)

Source: patent publication US8637237B2, “Methods, compositions, and systems for the identification of species-specific or developmental stage-specific insecticides” (The University of North Carolina at Greensboro, priority 2003, dated 2014)
